Assay results reported in ChEMBL document CHEMBL1151555, “Total synthesis of an optically active 8-carba-physostigmine analog: a potent acetylcholinesterase inhibitor” (Bioorg Med Chem Lett, 1991).

Molecular target: Acetylcholinesterase (Homo sapiens, UniProt P22303)
Assay: Concentration required to inhibit acetylcholinesterase isolated from human erythrocytes

Sequence of Acetylcholinesterase (P22303 whole entry): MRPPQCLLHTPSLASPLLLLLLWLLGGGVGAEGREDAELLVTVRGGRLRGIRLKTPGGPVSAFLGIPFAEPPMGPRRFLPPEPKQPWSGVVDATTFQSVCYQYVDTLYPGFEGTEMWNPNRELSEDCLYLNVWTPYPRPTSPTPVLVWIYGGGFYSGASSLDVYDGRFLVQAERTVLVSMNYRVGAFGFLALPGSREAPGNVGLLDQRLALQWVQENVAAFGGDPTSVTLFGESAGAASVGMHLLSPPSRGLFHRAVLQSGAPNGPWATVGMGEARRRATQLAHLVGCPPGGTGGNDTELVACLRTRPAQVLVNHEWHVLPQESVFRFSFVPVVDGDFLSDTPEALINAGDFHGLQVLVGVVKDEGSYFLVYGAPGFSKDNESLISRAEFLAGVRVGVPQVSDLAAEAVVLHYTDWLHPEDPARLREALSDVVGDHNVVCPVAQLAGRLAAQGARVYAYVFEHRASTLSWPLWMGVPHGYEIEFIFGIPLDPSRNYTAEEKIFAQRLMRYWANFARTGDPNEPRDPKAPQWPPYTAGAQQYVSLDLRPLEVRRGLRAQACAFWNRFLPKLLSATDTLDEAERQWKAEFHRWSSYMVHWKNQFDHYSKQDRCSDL

CCCCCCNC(=O)Oc1ccc2c(c1)[C@@]1(C)CCN(CC)[C@H]1C2
IC50: 233 nM

CCCCCCNC(=O)Oc1ccc2c(c1)[C@]1(C)CCN(CC)[C@@H]1C2
IC50: 20 nM
